Laboratory results: paper PMC8719450 (Xenobiotica; the fate of foreign compounds in biological …, 2021)
Like-named read-outs stand apart in the source and are kept apart here.

Columns and labels:
[1] = biological target: T1, CYP2A6 (Homo sapiens, UniProt P11509); settings: 20 min, 60 μM
T1 sequence (P11509 1-494): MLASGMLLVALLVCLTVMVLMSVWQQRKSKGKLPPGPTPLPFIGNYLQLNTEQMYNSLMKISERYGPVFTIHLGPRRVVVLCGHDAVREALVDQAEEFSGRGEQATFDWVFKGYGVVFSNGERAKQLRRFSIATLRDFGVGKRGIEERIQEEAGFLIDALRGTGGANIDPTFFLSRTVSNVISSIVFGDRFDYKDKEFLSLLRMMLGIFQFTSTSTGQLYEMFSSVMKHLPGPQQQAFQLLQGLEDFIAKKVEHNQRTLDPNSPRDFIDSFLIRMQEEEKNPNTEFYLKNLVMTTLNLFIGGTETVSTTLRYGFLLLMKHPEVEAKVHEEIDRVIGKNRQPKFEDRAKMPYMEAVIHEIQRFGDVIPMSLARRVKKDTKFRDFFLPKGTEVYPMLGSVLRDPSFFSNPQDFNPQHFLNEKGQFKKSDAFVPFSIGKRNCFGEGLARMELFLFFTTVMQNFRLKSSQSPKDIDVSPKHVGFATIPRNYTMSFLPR

[2] = tested on: sample HH47 liver microsomes; format: in vitro ADME, human; settings: substrate flavone 60 μM, inhibitor 10 μM
[3] = format: in vitro ADME; settings: human, human liver microsomes (sample HH54), probe flavone (60 µM), formation of diOHFM4 (3´4´diOHF)
[4] = biological target: T1, CYP2A6; experiment: Oxidation of flavonoids by reconstituted recombinant P450, LC-MS/MS
[5] = rats, oral or intraperitoneal administration; ref Das and Griffiths (1966); cited from earlier work
[6] = biological target: CYP2C9 (Homo sapiens, UniProt P11712); experiment: Oxidation of flavonoids by reconstituted recombinant P450, LC-MS/MS; format: in vitro ADME
Chain of CYP2C9 (P11712 whole entry): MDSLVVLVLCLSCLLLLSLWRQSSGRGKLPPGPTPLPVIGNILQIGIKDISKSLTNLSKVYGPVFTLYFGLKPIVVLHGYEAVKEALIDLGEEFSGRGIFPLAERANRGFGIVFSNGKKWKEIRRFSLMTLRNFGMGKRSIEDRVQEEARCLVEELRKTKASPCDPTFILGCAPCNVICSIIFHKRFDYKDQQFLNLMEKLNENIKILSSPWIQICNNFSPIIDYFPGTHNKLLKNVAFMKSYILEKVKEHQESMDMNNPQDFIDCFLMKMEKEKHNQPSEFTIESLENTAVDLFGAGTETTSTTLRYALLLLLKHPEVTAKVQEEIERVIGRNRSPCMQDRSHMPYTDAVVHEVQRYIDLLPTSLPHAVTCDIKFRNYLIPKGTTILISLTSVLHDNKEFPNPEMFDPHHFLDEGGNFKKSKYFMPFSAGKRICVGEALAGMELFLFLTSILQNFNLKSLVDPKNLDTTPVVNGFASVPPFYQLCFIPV

[7] = tested on: liver microsomes of human sample HH2; experiment: Oxidation of flavonoids by human liver microsomes, sample HH2; format: in vitro ADME
[8] = guinea pigs, oral 30 mg of flavone, ref Das and Griffiths (1966), cited from earlier work
[9] = biological target: T2, CYP2B6 (Homo sapiens, UniProt P20813); format: in vitro ADME
T2 sequence (P20813 1-491): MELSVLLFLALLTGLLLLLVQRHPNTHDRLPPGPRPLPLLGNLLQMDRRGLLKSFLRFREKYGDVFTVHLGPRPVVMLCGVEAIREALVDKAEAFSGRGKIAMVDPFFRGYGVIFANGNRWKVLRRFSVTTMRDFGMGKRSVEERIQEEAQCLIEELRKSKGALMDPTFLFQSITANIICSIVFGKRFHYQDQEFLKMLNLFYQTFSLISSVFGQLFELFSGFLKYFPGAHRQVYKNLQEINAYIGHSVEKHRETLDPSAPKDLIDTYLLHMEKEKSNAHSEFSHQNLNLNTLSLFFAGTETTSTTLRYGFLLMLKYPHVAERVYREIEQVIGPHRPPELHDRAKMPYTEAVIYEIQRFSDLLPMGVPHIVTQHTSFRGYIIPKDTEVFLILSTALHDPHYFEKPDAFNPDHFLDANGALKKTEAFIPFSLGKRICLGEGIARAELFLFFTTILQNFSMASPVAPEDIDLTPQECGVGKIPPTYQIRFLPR

[10] = biological target: CYP3A4 (Homo sapiens, UniProt P08684); experiment: Oxidation of flavonoids by reconstituted recombinant P450, LC-MS/MS; format: in vitro ADME
Chain of CYP3A4 (P08684 whole entry): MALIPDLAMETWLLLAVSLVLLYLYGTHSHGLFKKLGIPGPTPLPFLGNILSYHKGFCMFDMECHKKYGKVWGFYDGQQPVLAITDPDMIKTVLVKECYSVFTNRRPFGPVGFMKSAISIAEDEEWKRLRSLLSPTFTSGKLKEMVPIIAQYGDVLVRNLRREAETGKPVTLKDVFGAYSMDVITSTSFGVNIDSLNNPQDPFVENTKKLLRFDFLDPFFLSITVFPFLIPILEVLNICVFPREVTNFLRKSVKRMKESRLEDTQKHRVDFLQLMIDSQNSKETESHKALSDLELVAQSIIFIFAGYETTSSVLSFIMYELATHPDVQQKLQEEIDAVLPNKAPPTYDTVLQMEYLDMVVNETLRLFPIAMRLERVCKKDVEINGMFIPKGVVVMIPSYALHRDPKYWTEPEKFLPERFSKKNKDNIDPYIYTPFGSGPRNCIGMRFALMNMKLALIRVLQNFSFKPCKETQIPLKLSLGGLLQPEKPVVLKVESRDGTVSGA

In the case of `COc1ccc(-c2cc(=O)c3ccccc3o2)cc1` [4´MeF, 4´-methoxyflavone], the “rate of O-demethylation to form M2 (4´OHF)” value [1] is reported as 0.029 min⁻¹ and the “rate of formation of M1 (3´4´diOHF)” value [1] is reported as 0.0004 min^1.

For `O=c1cc(-c2ccccc2)oc2c1ccc1ccccc12` [ANF, α-naphthoflavone], the “inhibition of formation of OHFM5, OHFM7, 6OHF, and OHFM12” value [2] was “inhibited” and the inhibition at 20 min [3] was 65%.

For `O=c1ccc2ccccc2o1` [coumarin], the “inhibition of formation of OHFM6 and OHFM9” value [2] was “strongly inhibited” and the inhibition at 20 min [3] was 75%.

In the case of `O=c1cc(-c2ccccc2)oc2ccccc12` [flavone], the “activity in oxidizing to OHFM6 (4´OHF) and OHFM9 (3´OHF)” value [4] is given as “highly active”, the “3´4´diOHF found in urine” value [5] is given as “small amounts” and the “activity in oxidizing flavone” value [6] is given as “not very active”. The “production of OHFM6, OHFM9, and diOHFM4” value [7] was “very little”, the “urinary excretion of 4´OHF” value ([8]; first day) was 622 µg and the “urinary excretion of 4´OHF” value ([8]; fourth day) was 0 µg. The “urinary excretion of 4´OHF” value ([8]; second day) was 309 µg, the “urinary excretion of 4´OHF” value ([8]; third day) was 15 µg and the “activity in oxidizing flavone” value [9] was “not very active”. For the same molecule, the “activity in oxidizing flavone” value [10] was “not very active”.
